Reference: patent publication US7517987B2, “Caspase inhibitors and uses thereof” (Vertex Pharmaceutical Incorporated, priority 1999, dated 2009)

Key:
Caspase-1 = molecular target: T1, Caspase-1 (Homo sapiens, UniProt P29466); assay: Caspase-1 enzyme assay, cleavage of fluorogenic substrate; format: biochemical; conditions: second order rate constant of enzyme inactivation; substrate Acetyl-Tyr-Val-Ala-Asp-amino-4-methylcoumarin
T1 sequence (P29466 120-297 limits assumed): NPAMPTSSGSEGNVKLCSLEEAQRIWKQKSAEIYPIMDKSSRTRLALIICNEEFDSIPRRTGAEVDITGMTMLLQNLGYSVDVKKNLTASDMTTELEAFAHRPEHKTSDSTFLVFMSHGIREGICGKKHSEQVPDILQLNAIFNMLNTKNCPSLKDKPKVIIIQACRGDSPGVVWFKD
T1 sequence (P29466 317-404 limits assumed): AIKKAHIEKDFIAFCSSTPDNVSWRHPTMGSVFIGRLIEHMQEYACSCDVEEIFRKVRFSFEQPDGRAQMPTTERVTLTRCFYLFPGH
Excerpt: (§1) The assays for caspase inhibition are based on the cleavage of a fluorogenic substrate by recombinant, purified human Caspases-1, -3, -7 or -8. The assays are run in essentially the same way as those reported by Garcia-Calvo et al. (J. Biol. Chem. 273 (1998), 32608-32613), using a substrate specific for each enzyme. The substrate for Caspase-1 is Acetyl-Tyr-Val-Ala-Asp-amino-4-methylcoumarin. The substrate for Caspases-3, -7 and -8 is Acetyl-Asp-Glu-val-Asp-amino-4-methylcoumarin.
(§2) The observed rate of enzyme inactivation at a particular inhibitor concentration, kobs, is computed by direct fits of the data to the equation derived by Thornberry et al. (Biochemistry 33 (1994), 3943-3939) using a nonlinear least-squares analysis computer program (PRISM 2.0; GraphPad software). To obtain the second order rate constant, kinact, kobs values are plotted against their respective inhibitor concentrations and kinact values are subsequently calculated by computerized linear regression.

Jurkat E6.1 cells = assay: Anti-Fas induced apoptosis assay; format: cell-based; conditions: Homo sapiens, anti-Fas antibody CH-11 10 ng/ml, 16-18 hrs, DNA fragmentation, OD405 nm
Excerpt: Cellular apoptosis may be induced by the binding of Fas ligand (FasL) to its receptor, CD95 (Fas). CD95 is one of a family of related receptors, known as death receptors, which can trigger apoptosis in cells via activation of the caspase enzyme cascade. The process is initiated by the binding of the adapter molecule FADD/MORT-1 to the cytoplasmic domain of the CD-95 receptor-ligand complex. Caspase-8 then binds FADD and becomes activated, initiating a cascade of events that involve the activation of downstream caspases and subsequent cellular apoptosis. Apoptosis can also be induced in cells expressing CD95 eg the Jurkat E6.1 T cell lymphoma cell line, using an antibody, rather than FasL, to crosslink the cell surface CD95. Anti-Fas-induced apoptosis is also triggered via the activation of caspase-8. This provides the basis of a cell based assay to screen compounds for inhibition of the caspase-8-mediated apoptotic pathway.
Jurkat E6.1 cells are cultured in complete medium consisting of RPMI-1640 (Sigma No)+10% foetal calf serum (Gibco BRL No. 10099-141)+2 mM L-glutamine (Sigma No. G-7513). The cells are harvested in log phase of growth. 100 ml Cells at 5-8×10^5 cells/ml are transferred to sterile 50 ml Falcon centrifuge tubes and centrifuged for 5 minutes at 100×g at room temperature. The supernatant is removed and the combined cell pellets resuspended in 25 ml of complete medium. The cells are counted and the density adjusted to 2×10^6cells/ml with complete medium.
The test compound is dissolved in dimethyl sulphoxide (DMSO)(Sigma No. D-2650) to give a 100 mM stock solution. This is diluted to 400 μM in complete medium, then serially diluted in a 96-well plate prior to addition to the cell assay plate.
100 μl of the cell suspension ([…]) is added to each well of a sterile 96-well round-bottomed cluster plate (Costar No. 3790). 501l of compound solution at the appropriate dilution and 50 μl of anti-Fas antibody, clone CH-11 (Kamiya No.MC-060) at a final concentration of 10 ng/ml, are added to the wells. Control wells are set up minus antibody and minus compound but with a serial dilution of DMSO as vehicle control. The plates are incubated for 16-18 hrs at 37° C. in 5% CO2 and 95% humidity.
Apoptosis of the cells is measured by the quantitation of DNA fragmentation using a ‘Cell Death Detection Assay’ from Boehringer-Mannheim, No. 1544 675. After incubation for 16-18 hrs the assay plates are centrifuged at 100×g at room temperature for 5 minutes. 150 μl of the supernatant are removed and replaced by 150 μl of fresh complete medium. The cells are then harvested and 200 μl of the lysis buffer supplied in the assay kit are added to each well. The cells are triturated to ensure complete lysis and incubated for 30 minutes at 4° C. The plates are then centrifuged at 1900×g for 10 minutes and the supernatants diluted 1:20 in the incubation buffer provided. 100 μl of this solution is then assayed exactly according to the manufacturer's instructions supplied with the kit. OD405 nm is measured 20 minutes after addition of the final substrate in a SPECTRAmax Plus plate reader (Molecular Devices). OD405 nm is plotted versus compound concentration and the IC50 values for the compounds are calculated using the curve fitting program SOFTmax Pro (Molecular Devices) using the four parameter fit option.

Caspase-8 = Caspase-8 (Homo sapiens, UniProt Q14790); assay: Caspase-8 enzyme assay, cleavage of fluorogenic substrate; format: biochemical; conditions: second order rate constant of enzyme inactivation; substrate Acetyl-Asp-Glu-val-Asp-amino-4-methylcoumarin
Sequence of Caspase-8 (Q14790 217-374 limits assumed): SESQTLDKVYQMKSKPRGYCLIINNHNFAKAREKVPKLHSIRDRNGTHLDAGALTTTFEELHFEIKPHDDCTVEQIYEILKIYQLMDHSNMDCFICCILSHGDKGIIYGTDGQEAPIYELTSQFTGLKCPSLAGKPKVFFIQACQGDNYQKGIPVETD
Sequence of Caspase-8 (Q14790 385-479 limits assumed): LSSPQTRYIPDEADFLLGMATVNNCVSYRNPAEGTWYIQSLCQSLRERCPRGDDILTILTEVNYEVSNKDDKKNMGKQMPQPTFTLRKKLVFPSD
Excerpt: as §1, §2

Caspase-3 = molecular target: T2, Caspase-3 (Homo sapiens, UniProt P42574); assay: Caspase-3 enzyme assay, cleavage of fluorogenic substrate; format: biochemical; conditions: second order rate constant of enzyme inactivation; substrate Acetyl-Asp-Glu-val-Asp-amino-4-methylcoumarin
T2 sequence (P42574 29-175 limits assumed): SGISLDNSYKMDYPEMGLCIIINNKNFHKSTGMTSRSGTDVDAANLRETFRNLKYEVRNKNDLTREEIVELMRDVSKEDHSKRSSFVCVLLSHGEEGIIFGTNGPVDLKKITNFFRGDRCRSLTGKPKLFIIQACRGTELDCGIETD
T2 sequence (P42574 176-277 limits assumed): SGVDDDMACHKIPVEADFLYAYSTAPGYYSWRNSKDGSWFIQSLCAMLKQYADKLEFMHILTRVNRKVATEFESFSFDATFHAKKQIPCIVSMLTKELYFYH
Excerpt: as §1, §2

[1] = tested on: IL-1β secretion from peripheral blood mononuclear cells (PBMC); assay: Inhibition of IL-1β secretion from mixed population of PBMC; format: cell-based; conditions: Homo sapiens, LPS 50 ng/ml, 16-18 h, mature IL-1β in supernatant
Experimental: Processing of pre-IL-1β by caspase-1 can be measured in cell culture using a variety of cell sources. Human PBMC obtained from healthy donors provides a mixed population of lymphocyte and mononuclear cells that produce a spectrum of interleukins and cytokines in response to many classes of physiological stimulators.
The test compound is dissolved in dimethyl sulfoxide (DMSO,Sigma #D-2650) to give a 100 mM stock solution. This is diluted in complete medium consisting of RPMI containing 10% heat inactivated FCS (Gibco BRL #10099-141), 2 mM L-Glutamine (Sigma, #G-7513), 100U penicillin and 100 μg/ml streptomycin (Sigma #P-7539). The final concentration range of test compound is from 100 μM down to 6 nM over eight dilution steps. The highest concentration of test compound is equivalent to 0.1% DMSO in the assay.
Human PBMC are isolated from Buffy Coats obtained from the blood bank using centrifugation on Ficoll-Paque leukocyte separation medium (Amersham, #17-1440-O2) and the cellular assay is performed in a sterile 96 well flat-bottomed plate (Nunc). Each well contains 100 μl of the cell suspension, 1×10^5 cells, 50 μl of compound dilutions and 50 μl of LPS (Sigma #L-3012) at 50 ng/ml final concentration. Controls consist of cells ± LPS stimulation and a serial dilution of DMSO diluted in the same way as compound. The plates are incubated for 16-18 h at 37° C. in 5% CO2 & 95% humidity atmosphere.
After 16-18 h the supernatants are harvested after centrifuging the plates at 100×g at 18° C. for 15 min and assayed for their IL-1β content. Measurement of mature IL-1β in the supernatant is performed using the Quantikine kits (R&D Systems) according to manufacturer's instructions. Mature IL-1β levels of about 600-1500 pg/ml are observed for PBMCs in positive control wells.
The inhibitory potency of the compounds can be represented by an IC50 value, which is the concentration of inhibitor at which 50% of the mature IL-1β is detected in the supernatant as compared to the positive controls.

Caspase-7 = molecular target: T3, Caspase-7 (Homo sapiens, UniProt P55210); assay: Caspase-7 enzyme assay, cleavage of fluorogenic substrate; format: biochemical; conditions: second order rate constant of enzyme inactivation; substrate Acetyl-Asp-Glu-val-Asp-amino-4-methylcoumarin
T3 sequence (P55210 24-198 limits assumed): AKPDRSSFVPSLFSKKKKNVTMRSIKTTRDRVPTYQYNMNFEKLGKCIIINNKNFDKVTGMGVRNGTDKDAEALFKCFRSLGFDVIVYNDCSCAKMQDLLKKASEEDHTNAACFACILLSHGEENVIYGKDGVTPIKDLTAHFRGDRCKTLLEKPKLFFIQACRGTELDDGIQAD
T3 sequence (P55210 207-303 limits assumed): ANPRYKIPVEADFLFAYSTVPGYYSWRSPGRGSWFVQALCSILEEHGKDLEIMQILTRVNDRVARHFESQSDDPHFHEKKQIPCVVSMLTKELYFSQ
Excerpt: as §1, §2

| Structure (SMILES) | Kinact (Caspase-1) [M⁻¹ s⁻¹] | IC50 (Jurkat E6.1 cells) [nM] | Caspase-8 Kinact (Caspase-8) [M⁻¹ s⁻¹] | Kinact (Caspase-3) [M⁻¹ s⁻¹] | IC50 [1] [nM] | Caspase-7 Kinact (Caspase-7) [M⁻¹ s⁻¹] |
| --- | --- | --- | --- | --- | --- | --- |
| C[C@@H](C(=O)NC(CC(=O)O)C(=O)CF)n1c(=O)ccc2ccccc21 (stereo partly drawn) [Compound 1B-1, 5-Fluoro-4-oxo-3-[(S)-2-(2-oxo-2H-quinolin-1-yl)-propionylamino]-pentanoic acid] | 47000 | 140 | 12000 | 24000 | – | – |
| CC[C@@H](C(=O)NC(CC(=O)O)C(=O)CF)n1cnccc1=O (stereo partly drawn) [Compound 1G-1, 5-Fluoro-4-oxo-3-[(2S)-2-(6-oxo-6H-pyrimidin-1-yl)-butyrylamino]-pentanoic acid] | 307000 | 20 | 68500 | 420000 | 600 | 147000 |
| C[C@@H](C(=O)NC(CC(=O)O)C(=O)CF)N1C(=O)c2ccccc2C1=O (stereo partly drawn) [Compound 1F-3, 5-Fluoro-4-oxo-3-[(2S)-2-(1,3-dioxo-1,3-dihydro-isoindol-2-yl)-propionylamino]-pentanoic acid] | 115000 | 30 | 15500 | 220000 | 4000 | – |
| O=C(O)CC(NC(=O)Cn1ccc(-c2ccccc2)cc1=O)C(=O)CF (stereo not drawn) [Compound 1A-4, 5-Fluoro-3-[2-(4-phenyl-2-oxo-2H-pyridin-1-yl)-acetylamino]-4-oxo-pentanoic acid] | 40000 | 650 | 13500 | – | – | – |
| O=C(O)CC(NC(=O)Cn1cnc2sccc2c1=O)C(=O)CF (stereo not drawn) [Compound 1E-1, 5-Fluoro-4-oxo-3-[2-(4-oxo-4H-thieno[2,3-d]pyrimidin-3-yl)-acetylamino]-pentanoic acid] | 46000 | 70 | 13500 | 64000 | 10000 | – |
| O=C(O)CC(NC(=O)Cn1ccc2ccccc2c1=O)C(=O)CF (stereo not drawn) [Compound 1C-1, 5-Fluoro-4-oxo-3-[2-(1-oxo-1H-isoquinolin-2-yl)-acetylamino]-pentanoic acid] | 248000 | 60 | 27000 | 130000 | 2900 | 26000 |
| CCC[C@@H](C(=O)NC(CC(=O)O)C(=O)CF)n1cnc2ccccc2c1=O (stereo partly drawn) [Compound 1C-11, 5-Fluoro-4-oxo-3-[(2S)-2-(4-oxo-4H-quinazolin-3-yl)-pentanoylamino]-pentanoic acid] | 419000 | 20 | 72500 | 185000 | 400 | – |
| CC(C)[C@@H](C(=O)NC(CC(=O)O)C(=O)CF)N1Cc2ccccc2N(Cc2cccc(Cl)c2)C1=O (stereo partly drawn) [Compound 1D-1, 5-Fluoro-4-oxo-3-[(2S)-2-[1-(3-chlorobenzyl)-2-oxo-1,4-dihydro-2H-quinazolin-3-yl]-3-methyl-butyrylamino]-pentanoic acid] | 107000 | 20 | 77000 | 67000 | – | – |
| Cc1cccc(=O)n1CC(=O)NC(CC(=O)O)C(=O)CF (stereo not drawn) [Compound 1A-3, 5-Fluoro-3-[2-(6-methyl-2-oxo-2H-pyridin-1-yl)-acetylamino]-4-oxo-pentanoic acid] | 36000 | 210 | 6750 | 51000 | – | – |
